{"source": "patent US20230372498A1", "about": "“PLK1 SELECTIVE DEGRADATION INDUCING COMPOUND” (UPPTHERA, priority 2020, published 2023)", "molecular_target": "T1, PLK1 (Homo sapiens, UniProt P53350)", "T1 construct": "endogenous in cells; host or cells: HeLa", "T1 sequence (P53350 whole entry)": "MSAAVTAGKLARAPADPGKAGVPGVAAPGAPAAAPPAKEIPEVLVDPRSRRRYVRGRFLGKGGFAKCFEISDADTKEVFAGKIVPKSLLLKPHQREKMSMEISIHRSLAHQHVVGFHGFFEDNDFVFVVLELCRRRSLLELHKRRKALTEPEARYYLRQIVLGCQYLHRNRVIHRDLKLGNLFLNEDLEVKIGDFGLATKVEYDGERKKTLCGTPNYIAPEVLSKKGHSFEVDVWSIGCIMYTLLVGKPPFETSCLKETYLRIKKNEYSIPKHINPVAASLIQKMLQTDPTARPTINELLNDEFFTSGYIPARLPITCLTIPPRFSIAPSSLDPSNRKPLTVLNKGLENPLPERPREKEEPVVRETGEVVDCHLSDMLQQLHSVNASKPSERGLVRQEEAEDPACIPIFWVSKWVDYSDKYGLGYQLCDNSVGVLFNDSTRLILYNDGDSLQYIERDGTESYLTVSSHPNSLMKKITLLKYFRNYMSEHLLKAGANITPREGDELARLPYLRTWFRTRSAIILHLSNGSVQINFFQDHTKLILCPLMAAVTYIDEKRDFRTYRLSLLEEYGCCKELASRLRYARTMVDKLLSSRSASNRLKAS", "assay": "PLK1 protein degradation in HeLa cells, Western blotting (PLK1/GAPDH ratio)", "format": "cell-based", "settings": "6 hours compound incubation; for Dmax: thymidine block and release, 10 points three-fold from 3 μM, PLK1 to GAPDH ratio, read-out: Dmax; for DC50: measured only if the grade of Dmax is A or B", "method_in_brief": "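Thymidine-synchronised HeLa cells (2 mM, 24 h) released 4 h into complete medium, then treated 6 h with compound in 10-point 3-fold dilutions from 3 μM. RIPA lysates (15 μg protein) run on SDS-PAGE; PLK1 Western blot normalised to GAPDH.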", "data": [{"smiles": "COc1cc(C(=O)NCCCOCCCOCCNc2cccc3c2CN(C2CCC(=O)NC2=O)C3=O)ccc1Nc1ncc2c(n1)N(C1CCCC1)CC(F)(F)C(=O)N2C", "note": "(centres unmarked) [Example 171, 4-((9-cyclopentyl-7,7-difluoro-5-methyl-6-oxo-6,7,8,9-tetrahydro-5H-pyrimido[4,5-b][1,4]diazepin-2-yl)amino)-N-(3-(3-(2-((2-(2,6-dioxopiperidin-3-yl)-1-oxoisoindolin-4-yl)amino)ethoxy)propoxy)propyl)-3-methoxybenzamide]", "values": [{"measurement": "Dmax", "result": "≥ 80", "unit": "%"}]}, {"smiles": "COc1cc(C(=O)NC2CCN(C(=O)N3CCN(c4cccc5c4C(=O)N(C4CCC(=O)NC4=O)C5=O)CC3)CC2)c(F)cc1Nc1ncc2c(n1)N(C1CCCC1)CC(F)(F)C(=O)N2C", "note": "(centres unmarked) [Compound 69, 4-((9-cyclopentyl-7,7-difluoro-5-methyl-6-oxo-6,7,8,9-tetrahydro-5H-pyrimido[4,5-b][1,4]diazepin-2-yl)amino)-N-(1-(4-(2-(2,6-dioxopiperidin-3-yl)-1,3-dioxoisoindolin-4-yl)piperazine-1-carbonyl)piperidin-4-yl)-2-fluoro-5-methoxybenzamide]", "values": [{"measurement": "DC50", "result": "≤ 50", "unit": "nM"}, {"measurement": "Dmax", "result": "≥ 80", "unit": "%"}]}, {"smiles": "COc1cc(C(=O)N[C@H]2CCN(C(=O)CCN3CCN(c4ccc5c(c4)C(=O)N(C4CCC(=O)NC4=O)C5=O)CC3)C2)ccc1Nc1ncc2c(n1)N(C1CCCC1)CC(F)(F)C(=O)N2C", "note": "(stereo partly drawn) [Example 174, 4-((9-cyclopentyl-7,7-difluoro-5-methyl-6-oxo-6,7,8,9-tetrahydro-5H-pyrimido [4,5-b][1,4]diazepin-2-yl)amino)-N-((3S)-1-(3-(4-(2-(2,6-dioxopiperidin-3-yl)-1,3-dioxoisoindolin-5-yl)piperazin-1-yl)propanoyl)pyrrolidin-3-yl)-3-methoxybenzamide]", "values": [{"measurement": "Dmax", "result": "≥ 80", "unit": "%"}]}, {"smiles": "COc1cc(C(=O)NC2CCN(Cc3cn(CCCC(=O)Nc4cccc5c4C(=O)N(C4CCC(=O)NC4=O)C5=O)nn3)CC2)c(F)cc1Nc1ncc2c(n1)N(C1CCCC1)CC(F)(F)C(=O)N2C", "note": "(centres unmarked) [Compound 46, 4-((9-cyclopentyl-7,7-difluoro-5-methyl-6-oxo-6,7,8,9-tetrahydro-5H-pyrimido[4,5-b][1,4]diazepin-2-yl)amino)-N-(1-((1-(4-((2-(2,6-dioxopiperidin-3-yl)-1,3-dioxoisoindolin-4-yl)amino)-4-oxobutyl)-1H-1,2,3-triazol-4-yl)methyl)piperidin-4-yl)-2-fluoro-5-methoxybenzamide]", "values": [{"measurement": "Dmax", "result": "< 60", "unit": "%"}]}, {"smiles": "COc1cc(C(=O)NC2CCN(CCOCCNC(=O)COc3cccc4c3C(=O)N(C3CCC(=O)NC3=O)C4=O)CC2)c(F)cc1Nc1ncc2c(n1)N(C1CCCC1)CC(F)(F)C(=O)N2C", "note": "(centres unmarked) [Compound 56, 4-((9-cyclopentyl-7,7-difluoro-5-methyl-6-oxo-6,7,8,9-tetrahydro-5H-pyrimido[4,5-b][1,4]diazepin-2-yl)amino)-N-(1-(2-(2-(2-((2-(2,6-dioxopiperidin-3-yl)-1,3-dioxoisoindolin-4-yl)oxy)acetamido)ethoxy)ethyl)piperidin-4-yl)-2-fluoro-5-methoxybenzamide]", "values": [{"measurement": "DC50", "result": "≤ 500", "unit": "nM"}, {"measurement": "Dmax", "result": "60 to 80", "unit": "%"}]}, {"smiles": "COc1cc(C(=O)N[C@H]2CCN(C(=O)CCCC(=O)N3CCN(c4cccc5c4C(=O)N(C4CCC(=O)NC4=O)C5=O)CC3)C2)c(F)cc1Nc1ncc2c(n1)N(C1CCCC1)CC(F)(F)C(=O)N2C", "note": "(stereo partly drawn) [Compound 143, 4-((9-cyclopentyl-7,7-difluoro-5-methyl-6-oxo-6,7,8,9-tetrahydro-5H-pyrimido[4,5-b][1,4]diazepin-2-yl)amino)-N-((3S)-1-(5-(4-(2-(2,6-dioxopiperidin-3-yl)-1,3-dioxoisoindolin-4-yl)piperazin-1-yl)-5-oxopentanoyl)pyrrolidin-3-yl)-2-fluoro-5-methoxybenzamide]", "values": [{"measurement": "DC50", "result": "≤ 500", "unit": "nM"}, {"measurement": "Dmax", "result": "60 to 80", "unit": "%"}]}, {"smiles": "COc1cc(C(=O)N[C@H]2CCN(C(=O)CCCCN3CCN(c4cccc5c4C(=O)N(C4CCC(=O)NC4=O)C5=O)CC3)C2)c(F)cc1Nc1ncc2c(n1)N(C1CCCC1)CC(F)(F)C(=O)N2C", "note": "(stereo partly drawn) [Example 173, 4-((9-cyclopentyl-7,7-difluoro-5-methyl-6-oxo-6,7,8,9-tetrahydro-5H-pyrimido[4,5-b][1,4]diazepin-2-yl)amino)-N-((3S)-1-(5-(4-(2-(2,6-dioxopiperidin-3-yl)-1,3-dioxoisoindolin-4-yl)piperazin-1-yl)pentanoyl)pyrrolidin-3-yl)-2-fluoro-5-methoxybenzamide]", "values": [{"measurement": "Dmax", "result": "≥ 80", "unit": "%"}]}, {"smiles": "COc1cc(C(=O)NCCCCCCCC(=O)Nc2cccc3c2C(=O)N(C2CCC(=O)NC2=O)C3=O)c(F)cc1Nc1ncc2c(n1)N(C1CCCC1)CC(F)(F)C(=O)N2C", "note": "(centres unmarked) [Compound 158, 4-((9-cyclopentyl-7,7-difluoro-5-methyl-6-oxo-6,7,8,9-tetrahydro-5H-pyrimido[4,5-b][1,4]diazepin-2-yl)amino)-N-(8-((2-(2,6-dioxopiperidin-3-yl)-1,3-dioxoisoindolin-4-yl)amino)-8-oxooctyl)-2-fluoro-5-methoxybenzamide]", "values": [{"measurement": "DC50", "result": "≤ 500", "unit": "nM"}, {"measurement": "Dmax", "result": "60 to 80", "unit": "%"}]}, {"smiles": "COc1cc(C(=O)NCC2CCCN2CCOCCNc2cccc3c2C(=O)N(C2CCC(=O)NC2=O)C3=O)c(F)cc1Nc1ncc2c(n1)N(C1CCCC1)CC(F)(F)C(=O)N2C", "note": "(centres unmarked) [Compound 124, 4-((9-cyclopentyl-7,7-difluoro-5-methyl-6-oxo-6,7,8,9-tetrahydro-5H-pyrimido[4,5-b][1,4]diazepin-2-yl)amino)-N-((1-(2-(2-((2-(2,6-dioxopiperidin-3-yl)-1,3-dioxoisoindolin-4-yl)amino)ethoxy)ethyl)pyrrolidin-2-yl)methyl)-2-fluoro-5-methoxybenzamide]", "values": [{"measurement": "DC50", "result": "≤ 500", "unit": "nM"}, {"measurement": "Dmax", "result": "60 to 80", "unit": "%"}]}, {"smiles": "COc1cc(C(=O)NC2CCN(CCOCCOCCOCCOCCNc3cccc4c3C(=O)N(C3CCC(=O)NC3=O)C4=O)CC2)c(F)cc1Nc1ncc2c(n1)N(C(C)C)CC(F)(F)C(=O)N2C", "note": "(centres unmarked) [Example 101, 4-((7,7-difluoro-9-isopropyl-5-methyl-6-oxo-6,7,8,9-tetrahydro-5H-pyrimido[4,5-b][1,4]diazepin-2-yl)amino)-N-(1-(14-((2-(2,6-dioxopiperidin-3-yl)-1,3-dioxoisoindolin-4-yl)amino)-3,6,9,12-tetraoxatetradecyl)piperidin-4-yl)-2-fluoro-5-methoxybenzamide]", "values": [{"measurement": "DC50", "result": "≤ 50", "unit": "nM"}, {"measurement": "Dmax", "result": "≥ 80", "unit": "%"}]}, {"smiles": "COc1cc(C(=O)NC2CC3(C2)CN(C(=O)CCNc2cccc4c2C(=O)N(C2CCC(=O)NC2=O)C4=O)C3)c(F)cc1Nc1ncc2c(n1)N(C1CCCC1)CC(F)(F)C(=O)N2C", "note": "(centres unmarked) [Compound 159, 4-((9-cyclopentyl-7,7-difluoro-5-methyl-6-oxo-6,7,8,9-tetrahydro-5H-pyrimido[4,5-b][1,4]diazepin-2-yl)amino)-N-(2-(3-((2-(2,6-dioxopiperidin-3-yl)-1,3-dioxoisoindolin-4-yl)amino)propanoyl)-2-azaspiro[3.3]heptan-6-yl)-2-fluoro-5-methoxybenzamide]", "values": [{"measurement": "DC50", "result": "≤ 50", "unit": "nM"}, {"measurement": "Dmax", "result": "≥ 80", "unit": "%"}]}, {"smiles": "COc1cc(C(=O)NC2CCN(C(=O)CN3CCN(c4cccc5c4C(=O)N(C4CCC(=O)NC4=O)C5=O)CC3)CC2)c(F)cc1Nc1ncc2c(n1)N(C1CCCC1)CC(F)(F)C(=O)N2C", "note": "(centres unmarked) [Compound 70, 4-((9-cyclopentyl-7,7-difluoro-5-methyl-6-oxo-6,7,8,9-tetrahydro-5H-pyrimido[4,5-b][1,4]diazepin-2-yl)amino)-N-(1-(2-(4-(2-(2,6-dioxopiperidin-3-yl)-1,3-dioxoisoindolin-4-yl)piperazin-1-yl)acetyl)piperidin-4-yl)-2-fluoro-5-methoxybenzamide]", "values": [{"measurement": "DC50", "result": "≤ 500", "unit": "nM"}, {"measurement": "Dmax", "result": "60 to 80", "unit": "%"}]}]}
